# Data reported in ChEMBL document CHEMBL3286094, “Synthesis and biological evaluation of novel bisbenzimidazoles as Escherichia coli topoisomerase IA inhibitors and potential antibacterial agents” (J Med Chem, 2014).
# Tests used:
# [1] = tested on: Escherichia coli; assay: Antibacterial activity against ampicillin/chloramphenicol/ciprofloxacin/gentamicin/tetracycline-resistant Escherichia coli 401 assessed as growth inhibition after 18 to 24 hrs by broth microdilution method; type: functional
# [2] = tested on: Escherichia coli; assay: Antibacterial activity against ampicillin/chloramphenicol/tetracycline/trimethoprim/ciprofloxacin-resistant Escherichia coli KK45 isolated from water source assessed as growth inhibition after 18 to 24 hrs by broth microdilution method
# [3] = tested on: Escherichia coli; assay: Antibacterial activity against ciprofloxacin-resistant Escherichia coli 72 assessed as growth inhibition after 18 to 24 hrs by broth microdilution method; type: functional
# [4] = tested on: Escherichia coli; assay: Antibacterial activity against gentamicin/kanamycin/tetracycline/nalidixic acid-resistant Escherichia coli 360 assessed as growth inhibition after 18 to 24 hrs by broth microdilution method; type: functional
# [5] = tested on: Escherichia coli; assay: Bactericidal activity against chloramphenicol/ampicillin/trimethoprim/ciprofloxacin/nalidixic acid-resistant Escherichia coli 59 by agar plating method; type: functional
# [6] = tested on: Escherichia coli; assay: Antibacterial activity against ampicillin/tetracycline/piperacillin-resistant Escherichia coli WB31 isolated from water source assessed as growth inhibition after 18 to 24 hrs by broth microdilution method
# [7] = tested on: Escherichia coli; assay: Bactericidal activity against cefazolinl/ampicillin/piperacillin/cefuroxime/cefepime/cefotaxime/tetracycline/trimethoprim-resistant Escherichia coli KK16 isolated from water source by agar plating method
# [8] = tested on: Escherichia coli; assay: Antibacterial activity against Escherichia coli ATCC 25922 assessed as growth inhibition after 18 to 24 hrs by broth microdilution method; type: functional
# [9] = tested on: Escherichia coli; assay: Antibacterial activity against cefazolinl/ampicillin/piperacillin/cefuroxime/cefepime/cefotaxime/tetracycline/trimethoprim-resistant Escherichia coli KK16 isolated from water source assessed as growth inhibition after 18 to 24 hrs by broth microdilution method
# [10] = tested on: Escherichia coli; assay: Bactericidal activity against Escherichia coli DH5[alpha] by agar plating method; type: functional
# [11] = tested on: Escherichia coli; assay: Antibacterial activity against multidrug-resistant Escherichia coli IP9 isolated from water source assessed as growth inhibition after 18 to 24 hrs by broth microdilution method
# [12] = tested on: Escherichia coli; assay: Bactericidal activity against cefazolinl/ampicillin/piperacillin/cefuroxime/cefepime/cefotaxime/tetracycline/ciprofloxacin-resistant Escherichia coli NG3 isolated from water source by agar plating method
# [13] = tested on: Escherichia coli; assay: Antibacterial activity against tetracycline/trimethoprim-resistant Escherichia coli IST isolated from water source assessed as growth inhibition after 18 to 24 hrs by broth microdilution method
# [14] = tested on: Escherichia coli; assay: Bactericidal activity against multidrug-resistant Escherichia coli IS 54 isolated from water source by agar plating method; conditions: IS 54, Water
# [15] = tested on: Escherichia coli; assay: Bactericidal activity against ampicillin/tetracycline/piperacillin-resistant Escherichia coli WB31 isolated from water source by agar plating method
# [16] = tested on: Escherichia coli; assay: Antibacterial activity against ampicillin/ciprofloxacin/gentamicin/tetracycline-resistant Escherichia coli 555 assessed as growth inhibition after 18 to 24 hrs by broth microdilution method; type: functional
# [17] = tested on: Escherichia coli; assay: Bactericidal activity against ampicillin/trimethoprim/piperacillin-resistant Escherichia coli MKNJ isolated from water source by agar plating method
# [18] = tested on: Escherichia coli; assay: Antibacterial activity against chloramphenicol/ampicillin/kanamycin/trimethoprim/ciprofloxacin/nalidixic acid-resistant Escherichia coli 151 assessed as growth inhibition after 18 to 24 hrs by broth microdilution method; type: functional
# [19] = tested on: Escherichia coli; assay: Antibacterial activity against ampicillin/trimethoprim/piperacillin-resistant Escherichia coli MKNJ isolated from water source assessed as growth inhibition after 18 to 24 hrs by broth microdilution method
# [20] = tested on: Escherichia coli; assay: Antibacterial activity against multidrug-resistant Escherichia coli IS 54 isolated from water source assessed as growth inhibition after 18 to 24 hrs by broth microdilution method; conditions: IS 54, Water
# [21] = tested on: Escherichia coli; assay: Bactericidal activity against Escherichia coli ATCC 25922 by agar plating method; type: functional
# [22] = tested on: Escherichia coli; assay: Antibacterial activity against cefazolinl/ampicillin/piperacillin/cefuroxime/cefepime/cefotaxime/tetracycline/ciprofloxacin-resistant Escherichia coli NG3 isolated from water source assessed as growth inhibition after 18 to 24 hrs by broth microdilution method
# [23] = tested on: Escherichia coli; assay: Bactericidal activity against tetracycline/trimethoprim-resistant Escherichia coli IST isolated from water source by agar plating method
# [24] = tested on: Escherichia coli; assay: Antibacterial activity against ampicillin/trimethoprim/cefazolinl/piperacillin/cefuroxime/cefoxitine/cefepime/cefotaxime-resistant Escherichia coli KP21 isolated from water source assessed as growth inhibition after 18 to 24 hrs by broth microdilution method
# [25] = tested on: Escherichia coli; assay: Antibacterial activity against ampicillin/trimethoprim/nalidixic acid-resistant Escherichia coli 118 assessed as growth inhibition after 18 to 24 hrs by broth microdilution method; type: functional
# [26] = tested on: Escherichia coli; assay: Antibacterial activity against ampicillin/kanamycin/trimethoprim/tetracyclin/ciprofloxacin/nalidixic acid-resistant Escherichia coli 81 assessed as growth inhibition after 18 to 24 hrs by broth microdilution method; type: functional
# [27] = tested on: Escherichia coli; assay: Antibacterial activity against chloramphenicol/ampicillin/kanamycin/trimethoprim/ciprofloxacin/nalidixic acid-resistant Escherichia coli 132 assessed as growth inhibition after 18 to 24 hrs by broth microdilution method; type: functional
# [28] = tested on: Escherichia coli; assay: Antibacterial activity against ampicillin/tetracycline/gentamicin-resistant Escherichia coli 451 assessed as growth inhibition after 18 to 24 hrs by broth microdilution method; type: functional
# [29] = tested on: Escherichia coli; assay: Bactericidal activity against ampicillin/trimethoprim/nalidixic acid-resistant Escherichia coli 118 by agar plating method; type: functional
# [30] = tested on: Escherichia coli; assay: Bactericidal activity against ampicillin/tetracycline/gentamicin-resistant Escherichia coli 451 by agar plating method; type: functional
# [31] = tested on: Escherichia coli; assay: Antibacterial activity against Escherichia coli DH5[alpha] assessed as growth inhibition after 18 to 24 hrs by broth microdilution method; type: functional
# [32] = tested on: Escherichia coli; assay: Bactericidal activity against chloramphenicol/ampicillin/kanamycin/trimethoprim/ciprofloxacin/nalidixic acid-resistant Escherichia coli 132 by agar plating method; type: functional
# [33] = tested on: Escherichia coli; assay: Bactericidal activity against ampicillin/ciprofloxacin/gentamicin/tetracycline-resistant Escherichia coli 555 by agar plating method; type: functional
# [34] = tested on: Escherichia coli; assay: Bactericidal activity against ampicillin/trimethoprim/cefazolinl/piperacillin/cefuroxime/cefoxitine/cefepime/cefotaxime-resistant Escherichia coli KP21 isolated from water source by agar plating method
compound,measurement,setting,value
CCCN1CCN(c2ccc3nc(-c4ccc5nc(-c6ccc(OC)c(OC)c6)[nH]c5c4)[nH]c3c2)CC1,MIC50,[1],4 µg/mL
same,MIC90,[1],7.2 µg/mL
same,MIC50,[2],4 µg/mL
same,MIC90,[2],7.7 µg/mL
same,MIC50,[3],2 µg/mL
same,MIC90,[3],3.4 µg/mL
same,MIC50,[4],8 µg/mL
same,MIC90,[4],15.2 µg/mL
same,MBC,[5],8 µg/mL
same,MIC50,[6],8 µg/mL
same,MIC90,[6],15.2 µg/mL
same,MBC,[7],4 µg/mL
same,MIC50,[8],8 µg/mL
same,MIC90,[8],12.5 µg/mL
same,MIC50,[9],2 µg/mL
same,MIC90,[9],3.7 µg/mL
same,MBC,[10],4 µg/mL
same,MIC50,[11],8 µg/mL
same,MIC90,[11],15.4 µg/mL
same,MBC,[12],8 µg/mL
same,MIC50,[13],8 µg/mL
same,MIC90,[13],14.9 µg/mL
same,MBC,[14],16 µg/mL
same,MBC,[15],16 µg/mL
same,MIC50,[16],16 µg/mL
same,MIC90,[16],29.8 µg/mL
same,MBC,[17],8 µg/mL
same,MIC50,[18],8 µg/mL
same,MIC90,[18],15.1 µg/mL
same,MIC50,[19],4 µg/mL
same,MIC90,[19],7.6 µg/mL
same,MIC50,[20],8 µg/mL
same,MIC90,[20],14.8 µg/mL
same,MBC,[21],16 µg/mL
same,MIC50,[22],4 µg/mL
same,MIC90,[22],7.6 µg/mL
same,MBC,[23],16 µg/mL
same,MIC50,[24],8 µg/mL
same,MIC90,[24],14.8 µg/mL
same,MIC50,[25],2 µg/mL
same,MIC90,[25],3.2 µg/mL
same,MIC50,[26],8 µg/mL
same,MIC90,[26],14.5 µg/mL
same,MIC50,[27],64 µg/mL
same,MIC90,[27],118 µg/mL
same,MIC50,[28],4 µg/mL
same,MIC90,[28],7.6 µg/mL
same,MBC,[29],4 µg/mL
same,MBC,[30],8 µg/mL
same,MIC50,[31],2 µg/mL
same,MIC90,[31],3.2 µg/mL
same,MBC,[32],128 µg/mL
same,MBC,[33],32 µg/mL
same,MBC,[34],16 µg/mL
COc1ccc(-c2nc3ccc(-c4nc5ccc(N6CCN(c7ncccn7)CC6)cc5[nH]4)cc3[nH]2)cc1OC,MIC50,[1],16 µg/mL
same,MIC90,[1],29 µg/mL
same,MIC50,[2],16 µg/mL
same,MIC90,[2],30.2 µg/mL
same,MIC50,[3],16 µg/mL
same,MIC90,[3],30.1 µg/mL
same,MIC50,[4],> 128 µg/mL
same,MBC,[5],32 µg/mL
same,MIC50,[6],16 µg/mL
same,MIC90,[6],30.2 µg/mL
same,MBC,[7],32 µg/mL
same,MIC50,[8],32 µg/mL
same,MIC90,[8],49 µg/mL
same,MIC50,[9],16 µg/mL
same,MIC90,[9],30.4 µg/mL
same,MBC,[10],4 µg/mL
same,MIC50,[11],128 µg/mL
same,MBC,[12],32 µg/mL
same,MIC50,[13],16 µg/mL
same,MIC90,[13],30.8 µg/mL
same,MBC,[14],64 µg/mL
same,MBC,[15],32 µg/mL
same,MIC50,[16],32 µg/mL
same,MIC90,[16],59.4 µg/mL
same,MBC,[17],64 µg/mL
same,MIC50,[18],16 µg/mL
same,MIC90,[18],30.4 µg/mL
same,MIC50,[19],32 µg/mL
same,MIC90,[19],61.4 µg/mL
same,MIC50,[20],32 µg/mL
same,MIC90,[20],61.6 µg/mL
same,MBC,[21],64 µg/mL
same,MIC50,[22],16 µg/mL
same,MIC90,[22],30.6 µg/mL
same,MBC,[23],32 µg/mL
same,MIC50,[24],32 µg/mL
same,MIC90,[24],60.5 µg/mL
same,MIC50,[25],4 µg/mL
same,MIC90,[25],7.4 µg/mL
same,MIC50,[26],16 µg/mL
same,MIC90,[26],29.7 µg/mL
same,MIC50,[27],64 µg/mL
same,MIC90,[27],122 µg/mL
same,MIC50,[28],16 µg/mL
same,MIC90,[28],28.8 µg/mL
same,MBC,[29],8 µg/mL
same,MBC,[30],32 µg/mL
same,MIC50,[31],2 µg/mL
same,MIC90,[31],3.6 µg/mL
same,MBC,[32],128 µg/mL
same,MBC,[33],64 µg/mL
same,MBC,[34],64 µg/mL
